Experiment: Human HepG2 cell viability assay in 384 well format
Assay type: toxicity, cell-based
Set-up: dose 125 nL, time 70.5 hour; concentration not given beside the values
Conditions: HepG2 cells, read-out: Inhibition

Row | Compound | cytotoxicity at 70.5 h [%]
1 | Cc1nnc([C@@H]2C[C@H]3CN(C(=O)c4sccc4C)C[C@H]3O2)[nH]1 | -8.24
2 | CC(C)CN1C[C@H]2CCN(C(=O)C3CCCO3)CC[C@H]2S1(=O)=O (stereo partly drawn) | -8.39
3 | CCN1C[C@H]2CCN(C(=O)C3CCCO3)CC[C@H]2S1(=O)=O (stereo partly drawn) | -7.09
4 | CNC(=O)[C@H]1CC[C@@H]2[C@@H](CCN2C(=O)N(C)C)O1 | -5.62
5 | CN(C)CCN1CCc2ncc(CN(C)Cc3ccco3)n2CC1 | 30
6 | Cn1cc(-c2nc(C3CCN(S(C)(=O)=O)CC3)cc3c2ncn3C)cn1 | 23.5
7 | CCN1CC2(CC1=O)CN(C(C)=O)CCN(S(=O)(=O)CC)C2 (stereo not drawn) | -2.5
8 | Cn1cc(-c2nc(C3CCN(CC4CC4)CC3)cc3c2ncn3C)cn1 | -1.1
9 | CN(C)c1ccc2c(c1)CN(C(=O)c1ccnnc1)C2c1cnco1 (stereo not drawn) | -13.8
10 | c1cc(CN2CCc3c(CN4CCCC4)n[nH]c3C2)ccn1 | 23.4
11 | C[C@H]1C[C@@H]2CCN(Cc3nccs3)C[C@H]2O1 | -9.2
12 | Cc1nnc(C[C@@H]2COC[C@H]3CN(C(=O)c4ccco4)C[C@@H]23)o1 | -9.01
13 | Cc1nnc(C[C@@H]2COC[C@H]3CN(C(=O)C4=CCCC4)C[C@@H]23)o1 | -13.7
14 | Cc1cc(C(=O)N2CCCC3(COCCN(c4ccccc4)C3)C2)[nH]n1 (stereo not drawn) | -10.7
15 | CCN1CC2(CC1=O)CN(C(C)=O)CCN(S(C)(=O)=O)C2 (stereo not drawn) | -13.4
16 | CC(C)Nc1nc2c(c(NC3CC3)n1)CN(C(=O)c1ccncc1)CC2 | 32.7
17 | C[C@H]1C[C@H]2CN(C(=O)c3cccc4c3OCCO4)CC[C@H]2O1 | 32.2
18 | O=C(COC1CCCC1)N1CC[C@H]2OCC[C@@]2(COCC2CC2)C1 | -3.35
19 | CCOCC1CN(C(=O)[C@H]2CCCO2)Cc2nnn(CC3CC3)c21 (stereo partly drawn) | -1.02
20 | CC(C)N1CCC(c2ccnc3c(C(=O)N4CCCC4)ncn23)CC1 | -3.82
21 | CCN1C(=O)CC(c2ccccc2)C12CCN(c1ncc(C)cn1)CC2 (stereo not drawn) | -3.7
22 | CCN(C)C(=O)c1ncn2c(C3CCN(S(C)(=O)=O)CC3)ccnc12 | -5.47
23 | CCN1C(=O)CC(c2cccnc2)C12CCN(c1ncc(F)cn1)CC2 (stereo not drawn) | 1.09
24 | O=C(c1ncn2c(C3CCN(CC4CC4)CC3)ccnc12)N1CCCC1 | 0.745
25 | CC(=O)NCC(=O)N1CCc2nc(C)nc(C)c2CC1 | 5.59
26 | CCNC(=O)N1CCC2(CC1)CCn1c(-c3ccccc3)cnc12 | -3.37

Row | Compound | cytotoxicity at 70.5 h [%]
27 | Cc1nnc([C@H]2C[C@H]3OCC[C@H]3N(S(=O)(=O)N(C)C)C2)o1 | -3.65
28 | O=C(Nc1cnccn1)[C@@H]1COC[C@H]2CN(c3ncc(F)cn3)C[C@H]21 | -4.35
29 | CC1CCN(c2ccc3c(-c4ncc(C(=O)O)s4)noc3c2)CC1 | -5.23
30 | CCOC1CC2(CCN(c3cnccn3)CC2)c2ccccc21 (stereo not drawn) | -4.37
31 | Cn1cnc2c1C(C(=O)N1CCOCC1)N(C(=O)c1ccccc1)CC2 (stereo not drawn) | -4.08
32 | Cc1nc(CN2CCc3nc(N4CCCC4)nc(NC(C)C)c3C2)cs1 | -3.99
33 | COC[C@H]1CCC[C@]12CN(S(=O)(=O)c1cccs1)CCO2 | -4.35
34 | Cc1ccsc1C(=O)N1CCC2(CC(C(=O)N(C)C(C)C)=NO2)C1 (stereo not drawn) | -2.65
35 | Cc1cccc(C(=O)N2CCC3(CC(C(=O)N(C)C(C)C)=NO3)C2)c1 (stereo not drawn) | -3.14
36 | COCC(=O)NCc1cc(=O)n2c(n1)CN(Cc1ccoc1)CCC2 | 1.73
37 | Cc1ccc(N2CCCC3(COCCN(c4cnccn4)C3)C2)nn1 (stereo not drawn) | -0.306
38 | Cc1cc(C(=O)N2CCc3c(CN(C)C(C)C)n[nH]c3C2)[nH]n1 | 0.919
39 | COCC(=O)N1CCCn2c(CN3CCCC3)nnc2C1 | -4.43
40 | CCNC(=O)N1CCC2(C1)c1ccccc1S(=O)(=O)N2CCOC (stereo not drawn) | 5.14
41 | CCCS(=O)(=O)N1C[C@@H](c2nc(C)no2)C[C@H]2OCC[C@H]21 | -0.391
42 | CC(=O)N1CC[C@@H]2O[C@@H](COCC(=O)N3CCCC3)CC[C@@H]21 | 23.9
43 | COc1cc(N2C[C@H](C(=O)N3CCCC3)[C@@H]3CCO[C@@H]3C2)ncn1 | -0.329
44 | CCN1C(=O)CC[C@@H]2[C@H]1CCN2S(=O)(=O)Cc1ccc(C)cc1 | -0.603
45 | CS(=O)(=O)N1CCOCC2(CCN(C(=O)c3cnccn3)CC2)C1 | 17.6
46 | COCc1nn(C(C)C)c2c1CCN(Cc1ccsc1)C2 | -5.82
47 | CN(C)C(=O)c1nn(C)c2c1CN(Cc1ccoc1)C2 | -7.04
48 | CCN1C(=O)C[C@@H]2[C@@H]1CCN2S(=O)(=O)Cc1ccc(C)cc1 | 1.97
49 | Cc1nc(CO[C@@H]2CN(Cc3ccccn3)[C@@H]3COC[C@@H]32)cs1 | -7.36
50 | Cc1nc(CO[C@@H]2CN(Cc3ccc(F)cc3)[C@@H]3COC[C@@H]32)cs1 | -7.17
51 | Cc1ccc(CN2Cc3c(cnn3C)C(COCC3CC3)C2)s1 (stereo not drawn) | 35.1
52 | CN(C)S(=O)(=O)N1CCC2(COCc3cnc(NCC4CC4)nc32)C1 (stereo not drawn) | 29.2

Row | Compound | cytotoxicity at 70.5 h [%]
53 | COCC(=O)N1CCC2(CCN(c3cnn(C)c3)C2=O)C1 (stereo not drawn) | 34.5
54 | CCCS(=O)(=O)N1CCC2(CCN(Cc3cccc(F)c3)C2=O)C1 (stereo not drawn) | 36.3
55 | N#Cc1ccc(OC[C@]23COC[C@H]2CN(Cc2ccccn2)C3)nc1 | 0.477
56 | Cc1nc(COC[C@H]2CC[C@H]3NCC[C@H]3O2)cs1 | -6.2
57 | Cn1cc(CN2C[C@H]3CCC[C@@H](CNc4nccn4C)[C@H]3C2)cn1 | -3.76
58 | Cn1ccnc1NC[C@@H]1CCC[C@@H]2CN(CC3CC3)C[C@@H]21 | -9.55
59 | O=C(O)c1cc2c(nc1-c1ccsc1)CCN(C(=O)C1CC1)CC2 | -7.32
60 | CC1CCCCN1C(=O)c1nc2c(n1C(C)C)CCN(C)C2 (stereo not drawn) | -14
61 | CN(Cc1ccco1)Cc1cnc2n1CCN(S(C)(=O)=O)CC2 | 26.4
62 | CCc1cnc(N2CC[C@H]3[C@@H]2CCC(=O)N3CC2CCOCC2)nc1 | 20.9
63 | COCCN1CCC2(CCCN(C(=O)c3cncn3C)C2)CC1 | -3.6
64 | CN1CCC2(CCN(c3ncc(F)cn3)CC2)C1=O | -1.11
65 | Cc1cc(C(=O)N2CCC3(CC2)COCCN(c2cccnc2)C3)[nH]n1 | -3.67
66 | CN(C)C(=O)COC[C@@]12CCC[C@@H]1CN(C1CCC1)C2 | -10.9
67 | C[C@@H]1C[C@H]2CN(Cc3nccs3)C[C@H]2O1 | -10.9
68 | CN(C)C(=O)COC[C@@]12CCC[C@@H]1CNC2 | -13.5
69 | CS(=O)(=O)N1CCOCC2(CCN(Cc3ccc[nH]3)CC2)C1 | -5.4
70 | Cc1nc(CN2CCC3(CC2)CC(=O)N(C)c2ccccc23)cs1 | -7.28
71 | COCCN1CCO[C@H]2CCN(C(=O)c3cccs3)CC[C@@H]21 | 5.33
72 | Cc1noc([C@H]2C[C@H]3OCC[C@H]3N(C3CCC3)C2)n1 | 24.7
73 | CN(C)c1nccc(N2CCO[C@H]3CN(Cc4nccn4C)C[C@H]32)n1 | -0.595
74 | Cc1nc(CN2C(=O)COC3(CCN(CC4CC4)CC3)C2C)cs1 (stereo not drawn) | 2.37
75 | Cc1cc(C(=O)N2CCC3(CC2)CC(c2cccnc2)C(=O)N3)no1 (stereo not drawn) | 1.95
76 | CCN(CC)Cc1cn2c(n1)CN(C(=O)Cc1ccsc1)CC2 | -5.15
77 | Cc1ccc(N2CCCC3(COCCN(c4ncccn4)C3)C2)nn1 (stereo not drawn) | 4.86
78 | O=C(c1cnc2ccccc2c1)N1CCC2(CCN2c2ncccn2)C1 (stereo not drawn) | 2.76

Row | Compound | cytotoxicity at 70.5 h [%]
79 | Cc1nc(CN2C(=O)COC3(CCN(C)CC3)C2C)cs1 (stereo not drawn) | 4.23
80 | O=C(c1ccccc1)N1CCC2(CCCN2c2ncccn2)CC1 | 3.93
81 | Cc1cccc(C(=O)N2C[C@@H]3COC[C@@H](CC(=O)N4CCCC4)[C@@H]3C2)n1 | 4.3
82 | O=C1COC2(CCN(Cc3nccs3)CC2)CN1c1ccccc1 | 5.28
83 | Cn1cccc1C(=O)N1CC[C@@H]2[C@@H]1CC(=O)N2CCN1CCOCC1 | -4.61
84 | CN(C)C(=O)c1nn(C)c2c1CN(Cc1ccc(F)cc1)C2 | -6.32
85 | CS(=O)(=O)NCc1cnc2n1CCN(Cc1ccoc1)CC2 | -9.11
86 | Cc1csc(CN2CC[C@H]3C[C@H](c4nc(C)no4)O[C@@H]3C2)n1 | -10.4
87 | Cc1nc(CO[C@@H]2CN(Cc3nccs3)[C@@H]3COC[C@@H]32)cs1 | -6.11
88 | O=C1C[C@H]2[C@@H](CCN2C(=O)c2ccoc2)N1CCN1CCOCC1 | -7.58
89 | COCc1nn(C(C)C)c2c1CCN(Cc1ccoc1)C2 | -6.52
90 | CS(=O)(=O)N1CCC2(CCN(C(=O)c3cccnc3)CC2)C1 | -7.54
91 | COCc1nn(C(C)C)c2c1CCN(Cc1nccs1)C2 | 12.2
92 | COCCN1CCC(c2nc3ccc(-c4ccccc4)cn3n2)CC1 | 1.72
93 | CN1Cc2[nH]nc(COCC3CC3)c2C1 | -11.3
94 | Cc1ccc(CN2CC[C@@H](NS(C)(=O)=O)[C@@H]2Cc2ccncc2)o1 | -10.7
95 | CN(C)C(=O)[C@H]1CC[C@@H]2[C@@H](CCN2Cc2ccccn2)O1 | 0.127
96 | CN(C)C(=O)[C@@H]1CC[C@@H]2[C@@H](CCN2Cc2ccccn2)O1 | -7.99
97 | Cn1cc(CN2Cc3c(cnn3C)C(COCC3CC3)C2)cn1 (stereo not drawn) | 26
98 | c1cc(CN2CCc3ncc(CN4CCOCC4)n3CC2)cs1 | 16.8
99 | O=C(c1cscn1)N1CCC2(CN(Cc3ccncc3)C2)C1 | -9.93
100 | Cc1nnc(N2CCCC3(CN(Cc4nccs4)CCO3)C2)o1 (stereo not drawn) | 34.9
101 | c1coc(CN2CCC3(CC2)COCCN(CCN2CCCC2)C3)c1 | -0.522
102 | c1c[nH]c(CN2CCC3(CC2)COCCN(CCN2CCCC2)C3)c1 | -10.3
103 | CCCN1CCc2c(C(=O)N(C)Cc3ccccn3)nn(C)c2C1 | -6.22
